Experimental data published in paper PMC8151276, “An Integrated Approach toward NanoBRET Tracers for Analysis of GPCR Ligand Engagement” (Molecules, 2021).

Target: T1, FZD10 (Homo sapiens, UniProt Q9ULW2)
T1 construct: purchased Promega (in-house HiBiT-GPCR construct library, NanoBRET)
T1 sequence (Q9ULW2 21-581): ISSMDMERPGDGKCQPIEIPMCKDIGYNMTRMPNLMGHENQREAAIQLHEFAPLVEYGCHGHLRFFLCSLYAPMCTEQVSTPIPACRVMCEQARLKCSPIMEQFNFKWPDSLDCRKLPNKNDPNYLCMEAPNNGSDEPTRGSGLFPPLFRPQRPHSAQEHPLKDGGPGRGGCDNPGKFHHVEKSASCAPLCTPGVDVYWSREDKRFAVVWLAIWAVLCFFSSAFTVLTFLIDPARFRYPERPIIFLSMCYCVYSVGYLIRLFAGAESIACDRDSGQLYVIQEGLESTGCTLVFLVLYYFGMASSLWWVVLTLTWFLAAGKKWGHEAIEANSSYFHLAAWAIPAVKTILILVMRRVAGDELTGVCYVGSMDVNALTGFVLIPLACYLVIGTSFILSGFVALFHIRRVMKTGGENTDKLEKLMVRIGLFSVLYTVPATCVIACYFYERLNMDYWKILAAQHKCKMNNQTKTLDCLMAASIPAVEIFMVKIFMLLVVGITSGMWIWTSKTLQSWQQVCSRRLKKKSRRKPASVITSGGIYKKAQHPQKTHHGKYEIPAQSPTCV
Test: NanoBRET screen HiBiT-FZD10 in HEK293
Assay type: binding
Procedure: Each tracer candidate was screened across the entire library of HiBiT-GPCR constructs using NanoBRET as the detection modality. As depicted in Figure 4A, the specificity of interactions was evaluated through decrease in BRET due to competitive displacement of a bound tracer by excess parental compound. Each tracer was analyzed for binding to each HiBiT-GPCR fusion in the absence and in the presence of competing parental compound. Briefly, HEK293 cells were transfected with HiBiT-GPCR constructs diluted into promoterless DNA to reduce expression and maximize translocation to the cell surface. Each tracer candidate was then screened at concentrations of 1 μM and 0.1 μM across cells expressing these fusions. Cells were treated for 1.5 h with tracer either alone or in the presence of 20 μM competing parental compound (i.e., control). BRET was measured upon addition of purified LgBiT and subsequent complementation with HiBiT genetically fused to a GPCR. The specificity of interactions was assessed through a decrease in BRET signal due to competitive displacement of the bound tracer. To further gauge the robustness of these interactions, the fold response over the control (i.e., BRETtracer/BRETcontrol) was calculated. We chose a 1.5-fold response, which translates to ≥7-fold signal over noise as the minimal threshold required to score an interaction as positive.
HiBiT-GPCR DNA constructs were diluted in 10 mM Tris pH 8 to a final concentration of 0.01 μg/μL, arrayed in 96-well plates and stored at −20 °C. For transfection, HEK293 cells were suspended in Opti-MEM (without phenol red) supplemented with 2% fetal bovine serum (Seradigm) and 100 units/mL penicillin–streptomycin (Gibco) at a final concentration of 220,000 cells/mL and dispensed into white 96-well plates at 90 μL/well. Subsequent transfections and screens were carried using an Agilent Bravo Automated Liquid Handling Platform. First, the 96-well HiBiT DNA arrays were diluted 25-fold in Opti-MEM (without serum or phenol red) to a final concentration of 0.0004 μg/μL and 20 μL of the diluted DNAs were transferred into new 96-well plates. Next, promoterless carrier DNA (1 μg/μL) was diluted 25-fold (0.04 μg/μL) and then dispensed into the diluted arrays at 20 μL/well. Following brief mixing, Viafect transfection reagent (Promega) diluted 16-fold into Opti-MEM was dispensed into the plates at 40 μL/well. After mixing by pipetting, plates were incubated for 10 min on the pipetting station deck. The DNA-transfection reagent complexes were then added to plates containing cells. To facilitate the screen, 10 μL of DNA-transfection reagent complexes were added in duplicates to the top 4 and bottom 4 rows, resulting in two identical 48-well arrays per plate. Plates with transfected cells were incubated for 18–20 h at 37 °C/5% CO2. A screen of each tracer across the entire library using two different concentrations requires duplicate plates of transfected cells. Depending on the number of tracers being screened, transfections can be scaled up using the same ratios. The next day, for each tracer, four 20× screening solutions in tracer dilution buffer (Promega) were prepared: two duplicates at final concentration of 20 μM and two duplicates at a final concentration of 2 μM. […] The four resulting solutions were diluted 4-fold in Opti-MEM without serum or phenol red to generate 5× solutions (5 µM and 0.5 µM tracer +/− 100 μM competing compound). To screen the library, a BioTek MultiFlo FX liquid dispenser was used to dispense 22.5 µL of tracer solution to the top 4 rows and 22.5 µL tracer + competing compound solution to the 4 bottom rows. Plates were briefly mixed on an orbital shaker and incubated for 1.5 h at room temperature. […] Plates were briefly mixed on an orbital shaker and incubated for 15 min to allow complementation.

Structure (SMILES) | NanoBRET Fold Response (FZD10, tracer 0.1μM) | NanoBRET Fold Response (FZD10, tracer 1μM) | further results
O=C(CCc1ccc2n1[B-](F)(F)[N+]1=C(c3ccc[nH]3)C=CC1=C2)NCc1ccc(C(=O)NCCOCCC(=O)N[C@@H]2CC[C@@]3(O)[C@H]4Cc5ccc(O)c6c5[C@@]3(CCN4CC3CC3)[C@H]2O6)cc1 [Naltrexone-3-NB590] | 0.66 | 1.06 | 
CN1CCN(C2=Nc3cc(Cl)ccc3N(CC(=O)NCCOCCOCCOCCOCCNC(=O)CCc3ccc4n3[B-](F)(F)[N+]3=C(c5ccc[nH]5)C=CC3=C4)c3ccccc32)CC1 [Clozapine-c-2-NB590] |  |  | NanoBRET Fold Response (FZD10, 0.1μM tracer): 1.00
O=C(CCOCCOCCOCCOCCNC(=O)CCc1ccc2n1[B-](F)(F)[N+]1=C(c3ccc[nH]3)C=CC1=C2)NCCCN1CCN(C2=Nc3cc(Cl)ccc3Nc3ccccc32)CC1 [Clozapine-a-2-NB590] |  |  | NanoBRET Fold Response (FZD10, 0.1μM tracer): 1.01; NanoBRET Fold Response (FZD10, 1μM tracer): 0.99
CCOC(=O)c1cc(C#N)c(N2CCC(C(=O)NS(=O)(=O)Cc3ccccc3/C=C/C(=O)NCCNC(=O)CCc3ccc4n3[B-](F)(F)[N+]3=C(c5ccc[nH]5)C=CC3=C4)CC2)nc1C [AZD1283-1-NB590] |  |  | NanoBRET Fold Response (FZD10, 0.1μM): 1.01; NanoBRET Fold Response (FZD10, 1μM): 1.02
COc1ccc2[nH]c(-c3ccc(CNC(=O)CCOCCOCCOCCOCCNC(=O)CCc4ccc5n4[B-](F)(F)[N+]4=C(c6ccc[nH]6)C=CC4=C5)cc3)c(CCNC(C)=O)c2n1 [AzomelatoninICO9-2-NB590] |  |  | NanoBRET Fold Response (0.1μM tracer): 0.96; NanoBRET Fold Response (1μM tracer): 0.89
CCCn1c(=O)c2[nH]c(-c3ccc(OCC(=O)NCCNC(=O)CCOCCNC(=O)c4ccc(CNC(=O)CCc5ccc6n5[B-](F)(F)[N+]5=C(c7ccc[nH]7)C=CC5=C6)cc4)cc3)nc2n(CCC)c1=O [XAC-3-NB590] | 1.05 | 0.99 | 
COc1ccccc1N1CCN(CCCCN2C(=O)c3ccc(CNC(=O)CCOCCNC(=O)c4ccc(CNC(=O)CCc5ccc6n5[B-](F)(F)[N+]5=C(c7ccc[nH]7)C=CC5=C6)cc4)cc3C2=O)CC1 [NAN-190-3-NB590] | 0.92 | 0.79 | 
CN(CCC=C1c2ccccc2CCc2ccccc21)C(=O)CCOCCOCCOCCOCCNC(=O)CCc1ccc2n1[B-](F)(F)[N+]1=C(c3ccc[nH]3)C=CC1=C2 [Amitriptyline-e-2-NB590] |  |  | NanoBRET Fold Response (tracer at 1μM): 1.01
O=C(CCc1ccc2n1[B-](F)(F)[N+]1=C(c3ccc[nH]3)C=CC1=C2)NCc1ccc(C(=O)NCCOCCOCCNCC(O)COc2cccc3ccccc23)cc1 (stereo not drawn) [Propranolol-3-NB590] |  |  | NanoBRET Fold Response (FZD10, 0.1μM): 1.04; NanoBRET Fold Response (FZD10, 1μM): 1.02
COc1ccc2c(n1)c(CCNC(C)=O)cn2CCNC(=O)CCc1ccc2n1[B-](F)(F)[N+]1=C(c3ccc[nH]3)C=CC1=C2 [Azamelatonin-1-NB590] |  |  | NanoBRET Fold Response (0.1μM tracer): 0.93; NanoBRET Fold Response (1μM tracer): 0.93
O=C(CCOCCOCCOCCOCCNC(=O)CCc1ccc2n1[B-](F)(F)[N+]1=C(c3ccc[nH]3)C=CC1=C2)NCCCN1CCN(C2=Nc3ccccc3Oc3ccc(Cl)cc32)CC1 [Loxapine-a-2-NB590] | 0.98 | 0.99 | 
COc1ccccc1N1CCN(CCCCN2C(=O)c3ccc(CNC(=O)CCOCCOCCOCCOCCNC(=O)CCc4ccc5n4[B-](F)(F)[N+]4=C(c6ccc[nH]6)C=CC4=C5)cc3C2=O)CC1 [NAN-190-2-NB590] | 0.99 | 1.04 | 
CC(C)N(CC[C@H](c1ccccc1)c1cc(CCNC(=O)c2ccc(CNC(=O)CCc3ccc4n3[B-](F)(F)[N+]3=C(c5ccc[nH]5)C=CC3=C4)cc2)ccc1O)C(C)C [Tolterodine-BZ-NB590] | 0.97 | 1.06 | 
O=C(CCc1ccc2n1[B-](F)(F)[N+]1=C(c3ccc[nH]3)C=CC1=C2)NCCOCCOCCNC(=O)OCCOCCN1CCN(C2=Nc3ccccc3Sc3ccccc32)CC1 [Quetiapine-a-2-NB590] | 0.92 | 0.80 | 
CN1CCN(C2=Nc3cc(Cl)ccc3Nc3ccc(CNC(=O)CCOCCOCCOCCOCCNC(=O)CCc4ccc5n4[B-](F)(F)[N+]4=C(c6ccc[nH]6)C=CC4=C5)cc32)CC1 [Clozapine-b-2-NB590] |  |  | NanoBRET Fold Response (FZD10, 0.1μM tracer): 1.01; NanoBRET Fold Response (FZD10, 1μM tracer): 1.08
CC(C)N(CC[C@H](c1ccccc1)c1cc(CCNC(=O)CCOCCOCCOCCOCCNC(=O)CCc2ccc3n2[B-](F)(F)[N+]2=C(c4ccc[nH]4)C=CC2=C3)ccc1O)C(C)C [Tolterodine-2-NB590] |  | 1.05 | 
CN(C)CCC=C1c2ccccc2CCc2ccc(C(=O)NCCNC(=O)CCOCCOCCOCCOCCNC(=O)CCc3ccc4n3[B-](F)(F)[N+]3=C(c5ccc[nH]5)C=CC3=C4)cc21 [Amitriptyline-a-2-NB590] |  |  | NanoBRET Fold Response (tracer at 0.1μM): 0.97; NanoBRET Fold Response (tracer at 1μM): 1.01
Cc1cc2c(s1)Nc1ccccc1N=C2N1CCN(CCCNC(=O)CCOCCOCCOCCOCCNC(=O)CCc2ccc3n2[B-](F)(F)[N+]2=C(c4ccc[nH]4)C=CC2=C3)CC1 [Olanzapine-a-2-NB590] | 0.98 | 0.99 | 
N#CN=C(NCCCOc1cccc(CN2CCCCC2)c1)NCCNC(=O)CCOCCOCCOCCOCCNC(=O)CCc1ccc2n1[B-](F)(F)[N+]1=C(c3ccc[nH]3)C=CC1=C2 [Aminopotentidine-2-NB590] | 0.99 | 0.99 | 
Cc1nc2n(c(=O)c1CCN1CCC(c3noc4cc(F)ccc34)CC1)CCCC2OC(=O)NCCOCCOCCOCCOCCNC(=O)CCc1ccc2n1[B-](F)(F)[N+]1=C(c3ccc[nH]3)C=CC1=C2 (stereo not drawn) [Risperidone-2-NB590] | 1.00 | 1.04 | 
CN(C)CCC=C1c2ccccc2CCc2ccc(C(=O)NCCNC(=O)CCOCCOCCOCCOCCNC(=O)CCc3ccc4n3[B-](F)(F)[N+]3=C(c5ccc[nH]5)C=CC3=C4)cc21 [Amitriptyline-b-2-NB590] |  |  | NanoBRET Fold Response (tracer at 0.1μM, listed as amitriptyline-b-2-NB590): 0.18; NanoBRET Fold Response (tracer at 1μM): 0.99
